The source of these data is patent EP3495350B1, “COMPOUND INHIBITING FORMATION OF C-MYC/MAX/DNA COMPLEX” (National Cancer Center, priority 2016, dated 2018).

The test system of one data set is zebrafish. As to the kind of experiment: Cardiotoxicity experiment using zebrafish (heart rate, lethality). It counts as in vivo. As to conditions: n=10; for Changes in heart rate (%): mean.
A short description of data set [1]: Single toxicity test (IV and IP single dose). The format is in vivo, Mouse. As to conditions: 40 mg/kg.
The next data set concerns the target recombinant c-Myc/Max. Kind of data set: Protein assay: electrophoretic mobility shift assay (EMSA) of DNA binding of c-Myc/Max. The format is biochemical. Here is the method: Recombinant proteins were prepared as described in the following references: K. C. Jung et al., Fatty Acids, Inhibitors for the DNA Binding of c-Myc/Max Dimer, Suppress Proliferation and Induce Apoptosis of Differentiated HL-60 Human Leukemia Cell, Leukemia, 2006, 20(1), 122-7 or Kyung-Chae Jeong et al., Small-Molecule Inhibitors of c-Myc Transcriptional Factor Suppress Proliferation and Induce Apoptosis of Promyelocytic Leukemia Cell via Cell Cycle Arrest, Mol. BioSyst., 2010, 6, 1503-1509.
The inhibitory activity of each candidate compound on DNA binding of recombinant c-Myc/Max was measured using an electrophoretic mobility shift assay (EMSA). The ratio of protein-DNA complexes in each sample was evaluated by measuring band intensity. The oligonucleotides (E-box, 5'-biotin-[…]-3'-biotin) corresponding to the consensus binding site of Myc/Max were dimerized through an annealing process. The protein mixture was incubated at room temperature for 5 minutes, and a DMSO solution containing each candidate compound was added thereto. The mixture was further incubated for 5 minutes, and the biotinylated DNA was added. To achieve a state of equilibrium, the final mixture was incubated at room temperature for 10 minutes. […] Each band was visualized using HRP-conjugated streptavidin and an ECL solution, and band intensity was measured using image analysis software.

The next data set concerns MBT-2. As to the kind of experiment: Cell based assay, cell viability (CellTiter-Glo), MBT-2. As to conditions: 72 hours, 0 to 2 µM; read-out: cell based assay cell line 1 MBT-2 IC50. (In general: Cellular ATP, detected with luciferase, serves as a proxy for viable cell number.)
The next data set relates to KU19-19. Kind of data set: Cell based assay, cell viability (CellTiter-Glo), KU19-19. As to conditions: Homo sapiens, KU-19-19; 72 hours, 0 to 2 µM; read-out: cell based assay cell line 2 KU19-19 IC50.
The next data set has as its system 253J. As to the kind of experiment: Cell based assay, cell viability (CellTiter-Glo), 253J. As to conditions: Homo sapiens; 72 hours, 0 to 2 µM; read-out: cell based assay cell line 3 253J IC50.
In another data set the test system is UM-UC-3. Kind of data set: Cell based assay, cell viability (CellTiter-Glo), UM-UC-3. As to conditions: Homo sapiens, UMUC3; 72 hours, 0 to 2 µM; read-out: cell based assay cell line 4 UM-UC-3 IC50.
Data set [2] in a line: Cell based assay, cell viability (CellTiter-Glo), RT4 (selectivity). As to conditions: human, rt4 cells; selectivity evaluation, Table 6; benign; read-out: Cytotoxicity (µM) RT4. The procedure:
Commercially available bladder cancer cell lines were treated with trypsin-EDTA and seeded in each well of a 96 well plate, followed by incubation for 24 hours. […] The compound-treated cells were further incubated for 72 hours. Cell viability was measured using an ATP detection method (CellTiter-Glo Luminescent Cell Viability Assay, Promega).
The selectivity of the compounds of the present disclosure to cancer cells was evaluated in the same manner as described in "2. Cell based assay".

Consider `COc1ccc(CCN2CCC(Nc3nc4ccccc4n3Cc3ccc(F)cc3)CC2)cc1` [Astemizole, reference compound], for which, in the data set on zebrafish (10 µM), the “Changes in heart rate (%)” value is 46.2% and the Lethality was 0/10.
On to `CC(=O)c1c([S+]([O-])Cc2ccccc2)nc2c(Br)ccc(Cl)c2c1O` (stereo not shown) [Compound 4, 3-acetyl-2-(benzylsulfinyl)-8-bromo-5-chloroquinolin-4(1H)-one], for which, in data set [1] (IV and IP single-dose administration of 40 mpk), the deaths result is “no deaths”. In addition, in data set [1] (mouse, in vivo), the “General symptoms (feed intake, drinking water intake)” value is “no abnormal symptoms”. Besides, the Weight changes entry in data set [1] (mouse, in vivo) is given as “no significant weight changes”. In addition, the Percentage was 0 (0/2) in data set [1] (mouse, in vivo, ip) and 0 (0/2) in data set [1] (mouse, in vivo, iv). Further, the mortality worked out at 0% in data set [1] (mouse, in vivo, ip) and 0% in data set [1] (mouse, in vivo, iv). Moreover, the “Changes in heart rate (%)” value in the data set on zebrafish (5 µM) worked out at 88.5%. Besides, the Lethality with zebrafish (5 µM) is 1/10. For the same compound, the half-maximal inhibitory concentration (IC50) at recombinant c-Myc/Max was under 1 µM; in the data set with MBT-2, 0.96 µM; in the data set on KU19-19, 1.05 µM; in the data set with 253J it was 1 µM; with UM-UC-3, 1.33 µM. Moreover, the CC50 at 72 h in data set [2] was over 10 µM.
Turning to `CC(=O)c1c([S+]([O-])Cc2ccc([N+](=O)[O-])cc2)[nH]c2c(Br)ccc(Cl)c2c1=O` (stereo not shown) [Compound 33, 3-acetyl-8-bromo-5-chloro-2-((4-nitrobenzyl)sulfinyl)quinolin-4(1H)-one], the “Changes in heart rate (%)” value in the data set with zebrafish (5 µM) is on record as 97.3%. Further, the Lethality in the data set on zebrafish (5 µM) was 0/10. Besides, in the data set with zebrafish (5 µM), the “Note (heart rate inhibition)” value is on record as “No significant heart rate inhibition”. Moreover, the IC50 in the data set on MBT-2 came out at 0.9 µM; in the data set with KU19-19, 1.42 µM; in the data set on 253J, 1.39 µM; in the data set on UM-UC-3 it was 1.11 µM. The CC50 at 72 h in data set [2] is over 10 µM.
With `CC(=O)c1c(S(=O)(=O)Cc2ccccc2)nc2c(Br)ccc(Cl)c2c1O` [Compound 54, 1-(2-(benzylsulfonyl)-8-bromo-5-chloro-4-hydroxyquinolin-3-yl)ethan-1-one], the IC50 on recombinant c-Myc/Max was under 1 µM; with MBT-2, over 2 µM; with KU19-19, over 2 µM; with 253J, over 2 µM; in the data set on UM-UC-3, over 2 µM.
As for `CC(=O)c1c([S+]([O-])Cc2cnc3[nH]ccc3c2)[nH]c2c(Br)ccc(Cl)c2c1=O` (stereo not shown) [Compound 107, 2-(((1H-pyrrolo[2,3-b]pyridin-5-yl)methyl)sulfinyl)-3-acetyl-8-bromo-5-chloroquinolin-4(1H)-one], the IC50 in the data set on MBT-2, with KU19-19, in the data set on 253J and in the data set with UM-UC-3 was over 2 µM throughout.

By mortality is commonly meant the percentage killed. High values mean a strong lethal effect, low ones a weak lethal effect. One may read the IC50 as the concentration needed to halve the response being measured.
